Patent US20200062773A1, “4,4a,5,7-TETRAHYDRO-3H-FURO[3,4-b]PYRIDINYL COMPOUNDS” (Janssen Pharmaceutlca NV, priority 2016, published 2020)

Experiments:
BACE1 = target: T1, BACE1 (Homo sapiens, UniProt P56817); assay: BACE1 biochemical FRET based assay; details: Method 1: recombinant BACE1 1 μg/ml, 120 min at room temperature, pH 5.0; for IC50: read-out: Biochemical FRET based assay pIC50 (converted)
T1 construct: recombinant BACE1 protein in a final concentration of 1 μg/ml
Source text: BACE1 Biochemical Fret Based Assay
(§1) This assay is a Fluorescence Resonance Energy Transfer Assay (FRET) based assay. The substrate for this assay is an APP derived 13 amino acids peptide that contains the ‘Swedish’ Lys-Met/Asn-Leu mutation of the amyloid precursor protein (APP) beta-site APP-cleaving enzyme cleavage site. This substrate also contains two fluorophores: (7-methoxycoumarin-4-yl) acetic acid (Mca) is a fluorescent donor with excitation wavelength at 320 nm and emission at 405 nm and 2,4-Dinitrophenyl (Dnp) is a proprietary quencher acceptor. […] Upon cleavage by BACE1, the fluorophore Mca is separated from the quenching group Dnp, restoring the full fluorescence yield of the donor. The increase in fluorescence is linearly related to the rate of proteolysis.
Briefly in a 384-well format recombinant BACE1 protein in a final concentration of 1 μg/ml is incubated for 120 minutes at room temperature with 10 μm substrate in incubation buffer (40 mM Citrate buffer pH 5.0, 0.04% PEG, 4% DMSO) in the absence or presence of compound. Next the amount of proteolysis is directly measured by fluorescence measurement at T=0 and T=120 (excitation at 320 nm and emission at 405 nm). Results are expressed in RFU (Relative Fluorescence Units), as difference between T120 and T0.
(§2) A best-fit curve is fitted by a minimum sum of squares method to the plot of % Controlmin versus compound concentration. From this an IC50 value (inhibitory concentration causing 50% inhibition of activity) can be obtained.

[1] = test system: Abeta 1-42 produced and secreted into the medium of human neuroblastoma SKNBE2 cells; assay: Cellular αLisa assay in SKNBE2 cells; format: cell-based; details: human neuroblastoma SKNBE2 cells expressing hAPP695, 18 hours incubation; for IC50: Homo sapiens, SKNBE2, 18 h, read-out: Cellular αLisa assay in SKNBE2 cells Abeta 42 pIC50 (converted)
Experimental: Cellular αLisa Assay in SKNBE2 Cells
In two αLisa assays the levels of Abeta 1-42 produced and secreted into the medium of human neuroblastoma SKNBE2 cells are quantified. The assay is based on the human neuroblastoma SKNBE2 expressing the wild type Amyloid Precursor Protein (hAPP695). The compounds are diluted and added to these cells, incubated for 18 hours and then measurements of Abeta 1-42 are taken. Abeta 1-42 are measured by sandwich αLisa. αLisa is a sandwich assay using biotinylated antibody AbN/25 attached to streptavidin coated beads and antibody cAb42/26 conjugated acceptor beads for the detection of Abeta 1-42 respectively. In the presence of Abeta 1-42, the beads come into close proximity. The excitation of the donor beads provokes the release of singlet oxygen molecules that trigger a cascade of energy transfer in the acceptor beads, resulting in light emission. Light emission is measured after 1 hour incubation (excitation at […] and emission at 615 nm).
as §2

BACE2 = target: T2, BACE2 (Homo sapiens, UniProt Q9Y5Z0); assay: BACE2 biochemical FRET based assay; details: recombinant BACE2, 450 minutes at room temperature, pH 5.0; for IC50: read-out: Biochemical FRET based assay pIC50 (converted)
T2 construct: recombinant BACE2 protein in a final concentration of 0.4 μg/ml
T2 sequence (Q9Y5Z0 63-518): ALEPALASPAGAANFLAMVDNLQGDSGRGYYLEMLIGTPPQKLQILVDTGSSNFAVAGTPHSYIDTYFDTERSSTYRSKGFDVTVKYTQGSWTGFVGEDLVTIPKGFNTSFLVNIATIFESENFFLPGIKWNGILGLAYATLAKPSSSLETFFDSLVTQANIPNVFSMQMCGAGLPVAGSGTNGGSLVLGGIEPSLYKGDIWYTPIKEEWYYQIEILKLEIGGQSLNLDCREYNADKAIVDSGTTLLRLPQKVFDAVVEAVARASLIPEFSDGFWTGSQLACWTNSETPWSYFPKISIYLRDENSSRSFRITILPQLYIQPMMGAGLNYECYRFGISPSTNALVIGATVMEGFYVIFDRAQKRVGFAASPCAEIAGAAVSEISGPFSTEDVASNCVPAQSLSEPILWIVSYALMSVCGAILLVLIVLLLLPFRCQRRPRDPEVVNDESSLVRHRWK
Source text: BACE2 Biochemical FRET Based Assay
as §1, with “assay” for “assay is an APP derived 13 amino acids peptide that”, “the beta-site APP-cleaving enzyme,” for “BACE1,”
Briefly in a 384-well format recombinant BACE2 protein in a final concentration of 0.4 μg/ml is incubated for 450 minutes at room temperature with 10 μM substrate in incubation buffer (50 mM Citrate buffer pH 5.0, 0.05% PEG, no DMSO) in the absence or presence of compound. Next the amount of proteolysis is directly measured by fluorescence measurement at T=0 and T=450 (excitation at 320 nm and emission at 405 nm). Results are expressed in RFU (Relative Fluorescence Units), as difference between T450 and T0.
as §2

[2] = test system: Abeta 1-42 in cerebrospinal fluid (CSF); assay: Pharmacology in the beagle dog: beta-amyloid profile in CSF after a single dose; format: in vivo; details: for % Mean decrease in Abeta 1-42 at 8 h post dosing compared to own baseline / % Mean decrease in Abeta 1-42 at 25 h post dosing compared to own baseline / % Mean decrease in Abeta 1-42 at 49 h post dosing compared to own baseline: beagle dog CSF; for EC50 Aβ42: beagle dog, CSF Abeta 1-42 after single dose
Experimental: Pharmacology in the Beagle Dog
(§3) Test compounds were tested to evaluate the effect on the beta-amyloid profile in cerebrospinal fluid (CSF) of dogs after a single dose, in combination with pharmacokinetic (PK) follow up and limited safety evaluation. For each of compound 4b, 3c, 7d, or 14, four beagle dogs (2 males, 2 females) were dosed with vehicle (1 ml/kg of an aqueous solution of 20% cyclodextrin) and 12, 8, 4 and 4 beagle dogs (2 males and 2 females per dosage group), were dosed with test compounds as follows:
(§4) CSF was taken in conscious animals directly from the lateral ventricle via a cannula which was screwed in the skull and covered with subcutaneous tissue and skin, before and at 4, 8, 25 and 49 hours after dosing. Eight hours after dosing the animals got access to their regular meal for 30 minutes. Blood was taken for PK follow up (0.5, 1, 2, 4, 8, 25 and 49 hours) and serum samples for biochemistry were taken before and at 8 and 25 h after dosing. The CSF samples were used for measurement of Abeta 1-42.

[3] = Limited safety evaluation in the beagle dog (observations, serum biochemistry); format: in vivo
Experimental: as §3
as §4, with “Blood was taken for PK follow up (0.5, 1, 2, 4, 8, 25 and 49 hours) and serum samples for biochemistry were taken before and at 8 and 25 h after dosing.” left out

T1 sequence (P56817 46-501): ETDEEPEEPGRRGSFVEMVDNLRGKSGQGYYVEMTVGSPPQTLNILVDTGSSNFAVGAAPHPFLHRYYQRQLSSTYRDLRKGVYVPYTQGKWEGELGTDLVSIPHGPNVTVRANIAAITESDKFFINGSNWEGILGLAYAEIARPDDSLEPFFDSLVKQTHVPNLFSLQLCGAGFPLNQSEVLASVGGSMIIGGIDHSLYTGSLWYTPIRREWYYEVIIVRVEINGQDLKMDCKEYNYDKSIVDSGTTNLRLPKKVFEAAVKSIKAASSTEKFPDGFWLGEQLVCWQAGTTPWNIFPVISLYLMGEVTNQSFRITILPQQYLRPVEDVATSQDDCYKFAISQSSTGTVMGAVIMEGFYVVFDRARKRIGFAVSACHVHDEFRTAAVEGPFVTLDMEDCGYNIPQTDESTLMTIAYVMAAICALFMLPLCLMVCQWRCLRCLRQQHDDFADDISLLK

For C[C@@]1(C#N)C[C@@H]2[C@@H](C(F)(F)F)OC[C@]2(c2cc(NC(=O)c3ccc(C#N)cn3)ccc2F)N=C1N [3c], the “Biochemical FRET based assay pIC50” value (BACE1) was 9.06, the “Cellular αLisa assay in SKNBE2 cells Abeta 42 pIC50” value (“Cellular αLisa assay” below) [1] was 8.52 and the “Biochemical FRET based assay pIC50” value (BACE2) was 7.97. For the same molecule, the “% Mean decrease in Abeta 1-42 at 8 h post dosing compared to own baseline” value ([2]; single dose 0.08 mg/kg) was 29%, the “% Mean decrease in Abeta 1-42 at 25 h post dosing compared to own baseline” value ([2]; single dose 0.08 mg/kg) was 27% and the “% Mean decrease in Abeta 1-42 at 49 h post dosing compared to own baseline” value ([2]; single dose 0.08 mg/kg) was “NR (NR means % decrease < 20)”. The “% Mean decrease in Abeta 1-42 at 8 h post dosing compared to own baseline” value ([2]; single dose 0.31 mg/kg) was 64%, the “% Mean decrease in Abeta 1-42 at 25 h post dosing compared to own baseline” value ([2]; single dose 0.31 mg/kg) was 62% and the “% Mean decrease in Abeta 1-42 at 49 h post dosing compared to own baseline” value ([2]; single dose 0.31 mg/kg) was 50%. For the same molecule, the “EC50 Aβ42” value [2] was 0.019 µg/mL and the Observations ([3]; one female dog dosed at 0.08 mg/kg, single dose, 8 h post dosing) was “moderate diarrhea”.
In the case of C[C@H]1OC[C@]2(c3cc(NC(=O)c4ccc(C#N)cn4)ccc3F)N=C(N)[C@](C)(C#N)C[C@H]12 [4b], the “Biochemical FRET based assay pIC50” value (BACE1) is reported as 8.73, the “Cellular αLisa assay” value [1] is reported as 8.9 and the “Biochemical FRET based assay pIC50” value (BACE2) is reported as 7.84. The “% Mean decrease in Abeta 1-42 at 8 h post dosing compared to own baseline” value ([2]; single dose 0.16 mg/kg) was 42%, the “% Mean decrease in Abeta 1-42 at 25 h post dosing compared to own baseline” value ([2]; single dose 0.16 mg/kg) was 21% and the “% Mean decrease in Abeta 1-42 at 49 h post dosing compared to own baseline” value ([2]; single dose 0.16 mg/kg) was “NR (NR means % decrease < 20)”. The “% Mean decrease in Abeta 1-42 at 8 h post dosing compared to own baseline” value ([2]; single dose 0.31 mg/kg) was 54%, the “% Mean decrease in Abeta 1-42 at 25 h post dosing compared to own baseline” value ([2]; single dose 0.31 mg/kg) was 53% and the “% Mean decrease in Abeta 1-42 at 49 h post dosing compared to own baseline” value ([2]; single dose 0.31 mg/kg) was “NR (NR means % decrease < 20)”. The “% Mean decrease in Abeta 1-42 at 8 h post dosing compared to own baseline” value ([2]; single dose 1.25 mg/kg) was 80%, the “% Mean decrease in Abeta 1-42 at 25 h post dosing compared to own baseline” value ([2]; single dose 1.25 mg/kg) was 71% and the “% Mean decrease in Abeta 1-42 at 49 h post dosing compared to own baseline” value ([2]; single dose 1.25 mg/kg) was 34%. The “EC50 Aβ42” value [2] was 0.024 µg/mL and the Observations ([3]; one female dog dosed at 1.25 mg/kg, single dose, 8 h post dosing) was “slight diarrhea”.
For C[C@@]1(C#N)C[C@@H]2[C@@H](C(F)(F)F)OC[C@]2(c2cc(NC(=O)c3cnc(OCF)cn3)ccc2F)N=C1N [7d], the “Biochemical FRET based assay pIC50” value (BACE1) was 8.79, the “Cellular αLisa assay” value [1] was 8.02 and the “Biochemical FRET based assay pIC50” value (BACE2) was 7.25. The “% Mean decrease in Abeta 1-42 at 8 h post dosing compared to own baseline” value ([2]; single dose 0.31 mg/kg) was 42%, the “% Mean decrease in Abeta 1-42 at 25 h post dosing compared to own baseline” value ([2]; single dose 0.31 mg/kg) was “NR (NR means % decrease < 20)” and the “ALT liver enzyme increase” value ([3]; one female dog, 0.31 mg/kg single dose) was 6 fold. The Observations ([3]; one female dog, 0.31 mg/kg single dose, 49 h post dosing) was “slight tremors and head shaking”.
For Cl.NC1=N[C@@]2(c3cc(NC(=O)c4ccc(F)cn4)ccc3F)CO[C@H](C(F)(F)F)[C@H]2CC1 [12c], the “Biochemical FRET based assay pIC50” value (BACE1) was 7.95, the “Cellular αLisa assay” value [1] was 8.13 and the “Biochemical FRET based assay pIC50” value (BACE2) was 7.26.
With CC(F)(F)[C@H]1OC[C@]2(c3cc(NC(=O)c4cnc(-n5cncn5)cn4)ccc3F)N=C(N)[C@](C)(C#N)C[C@H]12 [16a] the IC50 (BACE1) was 4.9 nM, the IC50 [1] was 16.6 nM and the IC50 (BACE2) was 363 nM.
With CC(F)(F)[C@H]1OC[C@]2(c3cc(NC(=O)c4ccc(C#N)cn4)ccc3F)N=C(N)[C@](C)(C#N)C[C@H]12 [17a] the IC50 (BACE1) was 1.58 nM, the IC50 [1] was 2.14 nM and the IC50 (BACE2) was 21.4 nM.
For COc1cc(C(=O)Nc2ccc(F)c([C@]34CO[C@H](C(C)(F)F)[C@H]3C[C@@](C)(C#N)C(N)=N4)c2)ncn1 [18a], the IC50 (BACE1) was 24.5 nM, the IC50 [1] was 138 nM and the IC50 (BACE2) was 1200 nM.
With CC(C)(F)[C@H]1OC[C@]2(c3cc(NC(=O)c4ccc(C#N)cn4)ccc3F)N=C(N)[C@@](C)(C#N)C[C@H]12 [21b] the IC50 (BACE1) was 10.5 nM, the IC50 [1] was 19.5 nM and the IC50 (BACE2) was 708 nM.
Molecule C[C@@]1(C#N)C[C@@H]2[C@@H](CF)OC[C@]2(c2cc(NC(=O)c3cnc(OCF)cn3)ccc2F)N=C1N [22a] has an IC50 (BACE1) of 4.79 nM, an IC50 [1] of 13.2 nM and an IC50 (BACE2) of 74.1 nM.
C[C@@]1(C#N)C[C@@H]2[C@@H](CF)OC[C@]2(c2cc(NC(=O)c3cnc(-n4cncn4)cn3)ccc2F)N=C1N [23a] gave an IC50 (BACE1) of 12.3 nM, an IC50 [1] of 25.7 nM and an IC50 (BACE2) of 355 nM.
Work on C[C@]1(C#N)C[C@@H]2[C@@H](CF)OC[C@]2(c2cc(NC(=O)c3ccc(C#N)cn3)ccc2F)N=C1N [24b] yielded an IC50 (BACE1) of 14.5 nM, an IC50 [1] of 31.6 nM and an IC50 (BACE2) of 158 nM.
C[C@@]1(C#N)C[C@@H]2[C@@H](C(F)F)OC[C@]2(c2cc(NC(=O)c3cnc(-n4cncn4)cn3)ccc2F)N=C1N [26a] gave an IC50 (BACE1) of 9.77 nM, an IC50 [1] of 31.6 nM and an IC50 (BACE2) of 105 nM.
C[C@@]1(C#N)C[C@@H]2[C@@H](C(F)F)OC[C@]2(c2cc(NC(=O)c3ccc(C#N)cn3)ccc2F)N=C1N [27a] showed an IC50 (BACE1) of 2.82 nM, an IC50 [1] of 6.31 nM and an IC50 (BACE2) of 36.3 nM.
Molecule CC1OCC2(c3cc(NC(=O)c4ccc(OC(F)F)cn4)ccc3F)N=C(N)C(C)(C#N)CC12 (centres unmarked) [compound 35] has an IC50 (BACE1) of 6.76 nM, an IC50 [1] of 10 nM and an IC50 (BACE2) of 85.1 nM.
